Oligonucleotides are written 5' to 3', each unit as a sugar letter and its base; * is a phosphorothioate linkage, no mark a phosphodiester; rarer units and linkages stand in square brackets, end groups in braces. Plain capitals give the bases only. e = 2'-O-(2-methoxyethyl) (MOE); [5mC] = 5-methylcytosine; d = 2'-deoxy (DNA)
Legend:
[1] = system: murine TTC39C mRNA; experiment: Dose-dependent antisense inhibition of murine TTC39C in mouse primary hepatocytes; type: cell-based; details: electroporation, ~16 h; for IC50: mouse primary hepatocytes
Experimental: Thirty antisense oligonucleotides were selected from the study described in Example 8 and further tested at various doses in mouse primary hepatocytes. Cells were plated at a density of 30,000 cells per well and transfected using electroporation with 500 nM, 1,000 nM, 2,000 nM, 4,000 nM, and 8,000 nM concentrations of antisense oligonucleotide, as specified in Table 30. After a treatment period of approximately 16 hours, RNA was isolated from the cells and TTC39C mRNA levels were measured by quantitative real-time PCR. Murine primer probe set RTS3266 was used to measure mRNA levels. TTC39C mRNA levels were adjusted according to total RNA content, as measured by RIBOGREEN®. Results are presented as percent inhibition of TTC39C, relative to untreated control cells.

[2] = system: murine TTC39C mRNA; experiment: Antisense inhibition of mouse TTC39C in mouse primary hepatocytes, single dose; type: cell-based; details: 8,000 nM antisense oligonucleotide, electroporation, approximately 24 hours, TTC39C mRNA by real-time PCR (RTS3266), relative to untreated control cells
Experimental: Antisense oligonucleotides were designed targeting a TTC39C nucleic acid and were tested for their effects on TTC39C mRNA in vitro. Cultured mouse primary hepatocytes at a density of 30,000 cells per well were transfected by electroporation with 8,000 nM antisense oligonucleotide. After a treatment period of approximately 24 hours, RNA was isolated from the cells and TTC39C mRNA levels were measured by quantitative real-time PCR. Mouse primer probe set RTS3266 (forward sequence […], designated herein as SEQ ID NO: 140; reverse sequence […], designated herein as SEQ ID NO: 141; probe sequence […], designated herein as SEQ ID NO: 142). TTC39C mRNA levels were adjusted according to total RNA content, as measured by RIBOGREEN®. Results are presented as percent inhibition of TTC39C, relative to untreated control cells.
The chimeric antisense oligonucleotides targeting TTC39C were designed as 5-10-5 MOE gapmers. The gapmers are 20 nucleotides in length, wherein the central gap segment is comprised of ten 2′-deoxynucleotides and is flanked on both sides (in the 5′ and 3′ directions) by wings comprising five nucleotides each. Each nucleotide in the 5′ wing segment and each nucleotide in the 3′ wing segment has a 2′-MOE modification. The internucleoside linkages throughout each gapmer are phosphorothioate (P═S) linkages. All cytosine residues throughout each gapmer are 5-methylcytosines. “Mouse Target start site” indicates the 5′-most nucleotide to which the gapmer is targeted in the mouse gene sequence.

Substance	percent inhibition of TTC39C mRNA ([1]; 500.0 nM)	percent inhibition of TTC39C mRNA ([1]; 1000.0 nM)	percent inhibition of TTC39C mRNA ([1]; 2000.0 nM)	percent inhibition of TTC39C mRNA ([1]; 4000.0 nM)	percent inhibition of TTC39C mRNA ([1]; 8000.0 nM)	IC50 [1]	% inhibition [2]
ISIS 474609: 5-10-5 MOE gapmer antisense oligonucleotide targeting murine TTC39C (antisense e[5mC]*eG*eT*eA*eG*dT*dA*dG*d[5mC]*dA*d[5mC]*dT*dG*dG*dG*eA*e[5mC]*e[5mC]*eA*e[5mC])	48%	56%	71%	90%	97%	600 nM	95%
ISIS 474596: 5-10-5 MOE gapmer antisense oligonucleotide targeting murine TTC39C (antisense e[5mC]*eG*eA*eT*eT*dA*d[5mC]*dA*d[5mC]*d[5mC]*dA*dG*d[5mC]*d[5mC]*dT*e[5mC]*eT*eT*e[5mC]*eA)	47%	65%	62%	90%	96%	600 nM	93%
ISIS 474607: 5-10-5 MOE gapmer antisense oligonucleotide targeting murine TTC39C (antisense eT*e[5mC]*eA*eA*eT*d[5mC]*dA*dT*dG*d[5mC]*dT*dG*d[5mC]*dA*d[5mC]*e[5mC]*eA*eG*e[5mC]*e[5mC])	40%	65%	85%	92%	94%	500 nM	98%
ISIS 474518: 5-10-5 MOE gapmer antisense oligonucleotide targeting murine TTC39C (antisense eG*eT*eA*eG*eT*d[5mC]*dT*dT*dT*dA*dA*dG*dT*d[5mC]*dA*eT*e[5mC]*eG*e[5mC]*eA)	61%	73%	90%	94%	96%		96%
ISIS 474598: 5-10-5 MOE gapmer antisense oligonucleotide targeting murine TTC39C (antisense e[5mC]*e[5mC]*e[5mC]*eA*e[5mC]*d[5mC]*dT*dT*dT*dT*dA*dT*dG*dT*dA*eG*eG*e[5mC]*e[5mC]*eG)	40%	37%	60%	83%	94%	1100 nM	94%
ISIS 474666: 5-10-5 MOE gapmer antisense oligonucleotide targeting murine TTC39C (antisense e[5mC]*eA*eA*eT*e[5mC]*dA*dT*dG*d[5mC]*dT*dG*d[5mC]*dA*d[5mC]*d[5mC]*eA*eG*e[5mC]*e[5mC]*eT)	35%	54%	79%	92%	95%	800 nM	95%
ISIS 474662: 5-10-5 MOE gapmer antisense oligonucleotide targeting murine TTC39C (antisense eG*eG*eA*eT*eT*dT*d[5mC]*d[5mC]*dG*dG*dG*d[5mC]*dA*dT*d[5mC]*eA*eA*e[5mC]*e[5mC]*eT)	28%	35%	65%	88%	94%	1300 nM	95%
ISIS 474515: 5-10-5 MOE gapmer antisense oligonucleotide targeting murine TTC39C (antisense eT*e[5mC]*e[5mC]*e[5mC]*eT*dG*dA*dA*dG*d[5mC]*d[5mC]*dG*dT*dT*dG*eT*eT*eG*eA*eG)	56%	62%	79%	91%	94%		96%
ISIS 474523: 5-10-5 MOE gapmer antisense oligonucleotide targeting murine TTC39C (antisense eG*eG*eT*e[5mC]*eA*d[5mC]*d[5mC]*d[5mC]*d[5mC]*dT*dT*d[5mC]*dG*dG*d[5mC]*e[5mC]*eA*e[5mC]*eA*eA)	72%	80%	94%	96%	97%		98%
ISIS 474543: 5-10-5 MOE gapmer antisense oligonucleotide targeting murine TTC39C (antisense e[5mC]*e[5mC]*eA*eG*eG*dT*dG*dG*d[5mC]*dT*dT*dT*dG*dG*d[5mC]*eT*eT*eG*eG*eG)	77%	88%	88%	88%	94%		98%
ISIS 474600: 5-10-5 MOE gapmer antisense oligonucleotide targeting murine TTC39C (antisense e[5mC]*e[5mC]*eA*eA*eG*dG*dG*d[5mC]*dT*d[5mC]*dT*dT*d[5mC]*d[5mC]*dG*eT*e[5mC]*eA*eG*e[5mC])	47%	57%	66%	86%	89%	600 nM	90%
ISIS 474629: 5-10-5 MOE gapmer antisense oligonucleotide targeting murine TTC39C (antisense eG*eA*eT*e[5mC]*eA*d[5mC]*dT*dG*d[5mC]*d[5mC]*dG*dT*d[5mC]*d[5mC]*dA*eA*eA*eG*e[5mC]*eA)	16%	28%	42%	48%	66%	3600 nM	93%
ISIS 474617: 5-10-5 MOE gapmer antisense oligonucleotide targeting murine TTC39C (antisense eA*eG*eT*eT*e[5mC]*d[5mC]*d[5mC]*dT*dT*dA*dG*dG*dG*dA*dG*eG*e[5mC]*e[5mC]*eA*eG)	43%	45%	80%	86%	94%	800 nM	94%
ISIS 474540: 5-10-5 MOE gapmer antisense oligonucleotide targeting murine TTC39C (antisense e[5mC]*e[5mC]*eA*e[5mC]*eT*dG*dG*dG*dA*dG*dT*dT*dT*dA*dT*e[5mC]*eA*e[5mC]*eT*eG)	43%	65%	81%	92%	97%	500 nM	98%
ISIS 474517: 5-10-5 MOE gapmer antisense oligonucleotide targeting murine TTC39C (antisense e[5mC]*e[5mC]*eT*e[5mC]*eG*dA*dA*dT*dG*dT*d[5mC]*dA*dT*d[5mC]*dA*eT*eG*eG*e[5mC]*eG)	60%	67%	89%	95%	97%		98%
ISIS 474532: 5-10-5 MOE gapmer antisense oligonucleotide targeting murine TTC39C (antisense eG*eT*eT*eG*eT*dG*d[5mC]*d[5mC]*d[5mC]*d[5mC]*dA*dT*d[5mC]*d[5mC]*dA*e[5mC]*eA*eT*e[5mC]*eA)	51%	64%	84%	94%	97%	400 nM	99%
